Test results as given in the CheMixHub viscosity set.
Several values for one entry are separate records, joined by “and”; a condition that tells them apart may be missing. Equal entries are not always repeated.

C1CCC2CCCCC2C1 (centres undefined)
viscosity
Details	293.15 K	298.15 K	303.15 K	308.15 K	313.15 K	318.15 K	323.15 K
100 kPa	2.507 mPa·s	2.272 mPa·s	2.07 mPa·s	–	1.741 mPa·s	–	1.457 mPa·s
101 kPa	2.453 mPa·s	2.223 mPa·s and 2.171 mPa·s	2.026 mPa·s	1.854 mPa·s	1.703 mPa·s	1.571 mPa·s	1.454 mPa·s

C=COCCCC
Details	viscosity [mPa·s]
308.15 K, 101 kPa	0.374

CC(=O)OC1CCCCC1
101 kPa
Details	viscosity [mPa·s]
300 K	1.95
310 K	1.61
320 K	1.36

CC12CC3CC(C)(C1)CC(C)(C3)C2
100 kPa
Details	viscosity
293.15 K	2.641 mPa·s and 2.61 mPa·s
298.15 K	2.376 mPa·s and 2.35 mPa·s
303.15 K	2.147 mPa·s
308.15 K	1.951 mPa·s
313.15 K	1.781 mPa·s and 1.76 mPa·s
318.15 K	1.633 mPa·s
323.15 K	1.502 mPa·s

CC=Cc1ccc(O)c(OC)c1
Details	viscosity [mPa·s]
298.15 K, 101 kPa	26.7

CCCCCCC
Details	viscosity
293.15 K, 100 kPa	0.379 mPa·s
293.15 K, 101 kPa	0.4002 mPa·s and 0.408 mPa·s
293.17 K, 101 kPa	0.409 mPa·s
293.2 K, 101.3 kPa	0.4084 mPa·s
296 K, 101.3 kPa	0.395 mPa·s and 0.397 mPa·s
298 K, 101.33 kPa	0.3899 mPa·s
298.15 K, 100 kPa	0.358 mPa·s
303 K, 101.33 kPa	0.374 mPa·s
303.15 K, 100 kPa	0.376 mPa·s and 0.337 mPa·s
303.15 K, 101.33 kPa	0.403 mPa·s and 0.381 mPa·s
308.15 K, 100 kPa	0.342 mPa·s and 0.318 mPa·s
308.15 K, 101.33 kPa	0.363 mPa·s
313.15 K, 100 kPa	0.301 mPa·s and 0.34 mPa·s
313.15 K, 101 kPa	0.331 mPa·s and 0.332 mPa·s and 0.3432 mPa·s
313.2 K, 101.3 kPa	0.3447 mPa·s
318.15 K, 101 kPa	0.326 mPa·s and 0.314 mPa·s and 0.3269 mPa·s
318.15 K, 101.33 kPa	0.317 mPa·s
323 K, 101.33 kPa	0.308 mPa·s
323.1 K, 101.3 kPa	0.3182 mPa·s
323.15 K, 101 kPa	0.3039 mPa·s

CCCCCCCC
Details	viscosity
293.15 K, 100 kPa	0.547 mPa·s and 0.512 mPa·s
293.15 K, 101 kPa	0.556 mPa·s and 0.539 mPa·s
298.15 K, 100 kPa	0.517 mPa·s and 0.48 mPa·s
298.15 K, 101.32 kPa	0.507 mPa·s
303.15 K, 100 kPa	0.452 mPa·s
303.15 K, 101 kPa	0.482 mPa·s
303.15 K, 101.33 kPa	0.4865 mPa·s and 0.479 mPa·s (2×) and 0.479 mPa·s
308.15 K, 100 kPa	0.468 mPa·s and 0.425 mPa·s
308.16 K, 101.3 kPa	0.4568 mPa·s
313.15 K, 100 kPa	0.447 mPa·s and 0.4 mPa·s and 0.429 mPa·s
318.15 K, 101.33 kPa	0.403 mPa·s
318.16 K, 101 kPa	0.4138 mPa·s
323.15 K, 100 kPa	0.385 mPa·s
323.15 K, 101 kPa	0.4049 mPa·s

CCCCCCCCCCCCCC
Details	viscosity
293.15 K, 101.33 kPa	2.282 mPa·s and 2.292 mPa·s and 2.292 mPa·s
298 K, 101.33 kPa	2.074 mPa·s
298.15 K, 100 kPa	2.15 mPa·s
298.15 K, 101.33 kPa	2.088 mPa·s and 2.091 mPa·s and 2.025 mPa·s
298.15 K, 103 kPa	2.048 mPa·s
303.15 K, 101 kPa	1.895 mPa·s and 1.895 mPa·s
303.15 K, 101.33 kPa	1.864 mPa·s
308.15 K, 101 kPa	1.715 mPa·s and 1.715 mPa·s
308.15 K, 103 kPa	1.685 mPa·s
313.15 K, 100 kPa	1.612 mPa·s
313.15 K, 101.33 kPa	1.548 mPa·s
318.15 K, 101.33 kPa	1.356 mPa·s
318.15 K, 103 kPa	1.413 mPa·s
323.15 K, 101.33 kPa	1.314 mPa·s

CCCCCCCCCCCCCCCCCCC
Details	viscosity [mPa·s]
313.15 K, 101 kPa	3.49

CCCCCCCCCCCCCC[P+](CCCCCC)(CCCCCC)CCCCCC.N#C[N-]C#N
viscosity [mPa·s]
Details	293.15 K	298.15 K	303.15 K	308.15 K	313.15 K	318.15 K	323.15 K
100 kPa	603	442	331	253	196	155	124
101 kPa	–	440	328	–	196	–	123

CCCCCO
Details	viscosity
293.15 K, 100 kPa	4.057 mPa·s and 4.155 mPa·s and 3.964 mPa·s
293.15 K, 101 kPa	3.939 mPa·s and 3.99 mPa·s and 4.06 mPa·s
293.15 K, 101.33 kPa	3.675 mPa·s and 4.109 mPa·s and 4.109 mPa·s
298.15 K, 100 kPa	3.512 mPa·s and 3.595 mPa·s
298.15 K, 101.3 kPa	3.302 mPa·s
303.15 K, 101.3 kPa	3 mPa·s and 2.832 mPa·s
308.15 K, 101.3 kPa	2.449 mPa·s
313.15 K, 101.3 kPa	2.3 mPa·s and 2.344 mPa·s
318 K, 101.3 kPa	2.075 mPa·s
318.15 K, 100 kPa	2.085 mPa·s
318.15 K, 101.3 kPa	2.066 mPa·s
323 K, 101.3 kPa	1.853 mPa·s
323.15 K, 101 kPa	1.784 mPa·s

CCI
Details	viscosity [mPa·s]
298.15 K, 101 kPa	0.577

CCOCCOCCO
101 kPa
Details	viscosity
293.15 K	4.291 mPa·s and 3.626 mPa·s
298.15 K	3.799 mPa·s and 3.686 mPa·s and 3.278 mPa·s
303.15 K	3.186 mPa·s and 2.862 mPa·s
308.15 K	2.839 mPa·s and 2.859 mPa·s and 2.507 mPa·s
313.15 K	2.511 mPa·s
318.15 K	2.358 mPa·s and 2.269 mPa·s

CCn1cc[n+](CCOC)c1.O=S(=O)([N-]S(=O)(=O)C(F)(F)F)C(F)(F)F
100 kPa
Details	viscosity [mPa·s]
293.15 K	43.63
298.15 K	35.49
303.15 K	29.33
308.15 K	24.58
313.15 K	20.86
318.15 K	18.03

CN(C)C=O
Details	viscosity
293.15 K, 100 kPa	0.855 mPa·s
293.15 K, 101.33 kPa	0.9248 mPa·s and 0.88 mPa·s
298.15 K, 100 kPa	0.82 mPa·s and 0.843 mPa·s
298.15 K, 101.3 kPa	0.792 mPa·s
298.15 K, 101.33 kPa	0.83 mPa·s
302.15 K, 101 kPa	1.032 mPa·s
303 K, 101.33 kPa	0.758 mPa·s
303.15 K, 101.3 kPa	0.7675 mPa·s and 0.7524 mPa·s
303.15 K, 101.33 kPa	0.78 mPa·s
305.15 K, 101 kPa	0.979 mPa·s
308 K, 101.33 kPa	0.721 mPa·s
308.15 K, 100 kPa	0.729 mPa·s and 0.718 mPa·s
308.15 K, 101.3 kPa	0.7077 mPa·s
308.15 K, 101.33 kPa	0.74 mPa·s
313.15 K, 100 kPa	0.687 mPa·s and 0.688 mPa·s
313.15 K, 101.3 kPa	0.6644 mPa·s
313.15 K, 101.33 kPa	0.7143 mPa·s and 0.7 mPa·s
318 K, 101.3 kPa	0.6348 mPa·s
318 K, 101.33 kPa	0.6348 mPa·s
318.15 K, 100 kPa	0.652 mPa·s
318.15 K, 101.33 kPa	0.67 mPa·s
323.15 K, 101.33 kPa	0.63 mPa·s

COCC(C)O (centres undefined)
viscosity
Details	298.15 K	303.15 K	308.15 K	313.15 K	318.15 K
101 kPa	1.55 mPa·s	1.3 mPa·s	1.22 mPa·s	1.11 mPa·s	1.04 mPa·s
101.33 kPa	1.671 mPa·s and 1.723 mPa·s and 1.694 mPa·s	–	1.374 mPa·s and 1.329 mPa·s	–	1.09 mPa·s and 1.078 mPa·s

Cc1ccnc(C)c1
101 kPa
Details	viscosity
303 K	0.7893 mPa·s and 0.7892 mPa·s
313 K	0.6863 mPa·s and 0.686 mPa·s
323 K	0.6133 mPa·s and 0.6129 mPa·s

ClC(Cl)=C(Cl)Cl
Details	viscosity
293.15 K, 101.33 kPa	0.8 mPa·s
298 K, 101 kPa	1.02 mPa·s
298.15 K, 101 kPa	0.838 mPa·s and 0.8486 mPa·s and 0.8426 mPa·s
298.15 K, 101.33 kPa	0.846 mPa·s
303 K, 101 kPa	0.97 mPa·s
303.15 K, 101 kPa	0.7976 mPa·s and 0.798 mPa·s and 0.814 mPa·s
303.15 K, 101.3 kPa	0.799 mPa·s
303.15 K, 101.32 kPa	0.7976 mPa·s
308 K, 101 kPa	0.92 mPa·s
313 K, 101 kPa	0.88 mPa·s
313.15 K, 101.33 kPa	0.731 mPa·s and 0.68 mPa·s
